We go through one molecule from patent US20260241046A1, “PROSTATE-SPECIFIC MEMBRANE ANTIGEN RECEPTOR-TARGETING RADIOPHARMACEUTICALS AND USES THEREOF” (Nuclidium AG, priority 2024, published 2026).

SMILES strings stand for the structures.

The assay relates to LNCaP cells. Briefly: In vitro cellular uptake and internalization. The format is cell-based, human. The settings on record: for Cell surface fraction / Internalised fraction / Total uptake: % of total applied activity. How it is done:
The cellular uptake of [^61Cu]Cu-NODAGA-PSMA I&T was studied in vitro using intact LNCaP cells seeded overnight in 6-well plates. On the day of the experiment, the cells were washed and incubated with [^61Cu]Cu-NODAGA-PSMA I&T at different time points, either alone or in the presence of 2-PMPA (10 μM) as a blocking agent, to distinguish between specific and non-specific uptake. At each investigated time point, the medium containing the unbound (free) [^61Cu]Cu-NODAGA-PSMA I&T was removed, followed by two washing steps with ice-cold phosphate-buffered saline. The cells were then treated for 2×5 min with ice-cold glycine solution (0.05 M, pH 2.8) to detach the cell surface-bound tracer (acid released). Afterwards, the cells containing the internalized [^61Cu]Cu-NODAGA-PSMA I&T were detached with 1 M sodium hydroxide at 37° C. and collected for measurement. The specific cell surface-bound and internalized tracer was expressed as a percentage of the total applied activity after subtracting the non-specific values. The results are presented in Table 23 as a mean value (n=3±standard deviation).

Regarding `O=C([O-])CN1CCN(CC(=O)[O-])CCN([C@H](CCC(=O)N[C@H](Cc2ccc(O)c(I)c2)C(=O)N[C@H](Cc2ccccc2)C(=O)N[C@H](CCCCNC(=O)CCCCCCC(=O)NCCCC[C@H](NC(=O)N[C@@H](CCC(=O)O)C(=O)O)C(=O)O)C(=O)O)C(=O)O)CC1.[61Cu+2]` [[^61Cu]Cu-NODAGA-PSMA I&T], the “time over which the radiotracer was continuously internalized” value was “up to 120 minutes”. Also, under “5 min”, the Cell surface fraction came out at 4.3 ± 0.7%, the Internalised fraction is reported as 1.2 ± 0.2% and the Total uptake was 5.5 ± 0.9%. Moreover, for the setting “15 min”, the Cell surface fraction is reported as 8.2 ± 1.0%, the Internalised fraction is given as 3.9 ± 0.4% and the Total uptake amounted to 12.1 ± 1.4%. In addition, where the note is “30 min”, the Cell surface fraction came out at 10.7 ± 1.0%, the Internalised fraction was 7.0 ± 1.1% and the Total uptake was determined as 17.7 ± 2.1%. Under “60 min”, this molecule came in with a Cell surface fraction of 10.8 ± 1.8%, an Internalised fraction of 11.7 ± 1.6% and a Total uptake of 22.5 ± 3.4%. Where the note is “120 min”, this molecule returned a Cell surface fraction of 10.2 ± 1.8%, an Internalised fraction of 17.6 ± 2.8% and a Total uptake of 27.8 ± 4.6%. Where the note is “saturation of binding sites”, the “time of highest accumulation on the cell membrane” value is ≤ 30 min.
